The pIC50 is −log10 of the IC50, conventionally taken in molar units. Lower therefore signals a high IC50.

The structures appear in SMILES notation. pIC50: −log10 of the molar value.

In ChEMBL document CHEMBL1126959, “HMG-CoA reductase inhibitors: design, synthesis, and biological activity of tetrahydroindazole-substituted 3,5-dihydroxy-6-heptenoic acid sodium salts” (J Med Chem, 1993) one finds IC50 data, which are given here for 15 molecules.

Experiment [1] deals with T1, 3-hydroxy-3-methylglutaryl-coenzyme A reductase (Rattus norvegicus, UniProt P51639).
T1 sequence (P51639 whole entry): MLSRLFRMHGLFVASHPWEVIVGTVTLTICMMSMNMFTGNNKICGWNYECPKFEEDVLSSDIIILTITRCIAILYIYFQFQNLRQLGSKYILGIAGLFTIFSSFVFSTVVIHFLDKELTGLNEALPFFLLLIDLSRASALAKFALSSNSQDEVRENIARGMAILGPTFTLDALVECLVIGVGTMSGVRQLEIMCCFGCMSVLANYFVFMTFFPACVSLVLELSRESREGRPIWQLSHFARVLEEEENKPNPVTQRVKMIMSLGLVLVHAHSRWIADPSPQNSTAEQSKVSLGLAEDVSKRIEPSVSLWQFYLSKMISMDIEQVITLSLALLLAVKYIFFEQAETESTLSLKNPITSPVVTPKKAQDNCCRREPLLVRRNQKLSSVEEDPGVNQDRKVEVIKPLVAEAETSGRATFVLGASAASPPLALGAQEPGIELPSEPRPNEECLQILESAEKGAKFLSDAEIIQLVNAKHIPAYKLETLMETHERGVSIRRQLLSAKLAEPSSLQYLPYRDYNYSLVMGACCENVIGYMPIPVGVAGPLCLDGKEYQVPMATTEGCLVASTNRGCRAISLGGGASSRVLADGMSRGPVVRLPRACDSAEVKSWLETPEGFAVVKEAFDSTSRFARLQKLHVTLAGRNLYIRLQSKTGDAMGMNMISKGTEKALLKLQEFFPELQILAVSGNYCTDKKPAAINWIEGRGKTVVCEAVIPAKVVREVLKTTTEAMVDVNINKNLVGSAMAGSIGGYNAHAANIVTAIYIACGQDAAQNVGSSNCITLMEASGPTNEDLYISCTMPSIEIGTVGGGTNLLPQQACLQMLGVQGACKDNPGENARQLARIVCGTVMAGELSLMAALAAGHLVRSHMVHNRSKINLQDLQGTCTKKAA
The experiment is described as follows: Inhibitory activity against partially purified rat liver HMG-CoA reductase in vitro; 2.6-4.8.

Experiment [2] concerns the target T1, 3-hydroxy-3-methylglutaryl-coenzyme A reductase. The experiment is described as follows: Inhibitory activity against partially purified rat liver HMG-CoA reductase in vitro; 0.0050-0.016.
The test system of experiment [3] is HepG2. The experiment is described as follows: Tested for ability to inhibit incorporation of [14C]acetate into cholesterol in cultured human hepatoma (HEP-G2) cells; 0.22-0.48. It counts as functional, cell-based.
Experiment [4] deals with HepG2. The experiment is described as follows: Tested for ability to inhibit incorporation of [14C]acetate into cholesterol in cultured human hepatoma (HEP-G2) cells; 0.0071-23. The class given is functional, cell-based.
The target in experiment [5] is T1, 3-hydroxy-3-methylglutaryl-coenzyme A reductase. The experiment is described as follows: Inhibitory activity against partially purified rat liver HMG-CoA reductase in vitro; 0.16-0.24.
The subject of experiment [6] is HepG2. The experiment is described as follows: Tested for ability to inhibit incorporation of [14C]acetate into cholesterol in cultured human hepatoma (HEP-G2) cells; 0.053-0.12. It counts as functional, cell-based.
The test system of experiment [7] is HepG2. Put plainly: Tested for ability to inhibit incorporation of [14C]acetate into cholesterol in cultured human hepatoma (HEP-G2) cells; 0.44-3.0. The class given is functional, cell-based.
Experiment [8] addresses T1, 3-hydroxy-3-methylglutaryl-coenzyme A reductase. The experiment is described as follows: Inhibitory activity against partially purified rat liver HMG-CoA reductase in vitro; 0.027-0.046.
For experiment [9] the target is unchanged. The experiment is described as follows: Inhibitory activity against partially purified rat liver HMG-CoA reductase in vitro; 1.2-3.3.
The target is the same in experiment [10]. The experiment is described as follows: Inhibitory activity against partially purified rat liver HMG-CoA reductase in vitro; 3.8-19.
Experiment [11] shares this target. Put plainly: Inhibitory activity against partially purified rat liver HMG-CoA reductase in vitro; 1.8-3.7.
Experiment [12] shares this target. The experiment is described as follows: Inhibitory activity against partially purified rat liver HMG-CoA reductase in vitro; 1.9-5.3.
Experiment [13] deals with HepG2. The experiment is described as follows: Tested for ability to inhibit incorporation of [14C]acetate into cholesterol in cultured human hepatoma (HEP-G2) cells; 1.3-2.3. The class given is functional, cell-based.
For experiment [14], the target named is T1, 3-hydroxy-3-methylglutaryl-coenzyme A reductase. The experiment is described as follows: Inhibitory activity against partially purified rat liver HMG-CoA reductase in vitro; 0.41-0.73.
Experiment [15] shares this target. Put plainly: Inhibitory activity against partially purified rat liver HMG-CoA reductase in vitro; 0.07-0.27.
For experiment [16], the system named is HepG2. The experiment is described as follows: Tested for ability to inhibit incorporation of [14C]acetate into cholesterol in cultured human hepatoma (HEP-G2) cells; 0.56-2.2. It counts as functional, cell-based.
In experiment [17] the target is T1, 3-hydroxy-3-methylglutaryl-coenzyme A reductase. Put plainly: Inhibitory activity against partially purified rat liver HMG-CoA reductase in vitro; 0.021-0.036.
The subject of experiment [18] is HepG2. The experiment is described as follows: Tested for ability to inhibit incorporation of [14C]acetate into cholesterol in cultured human hepatoma (HEP-G2) cells; 0.26-0.80. The class given is functional, cell-based.
Experiment [19] concerns the target T1, 3-hydroxy-3-methylglutaryl-coenzyme A reductase. The experiment is described as follows: Inhibitory activity against partially purified rat liver HMG-CoA reductase in vitro; 2.1-54.
Experiment [20] relates to HepG2. Put plainly: Tested for ability to inhibit incorporation of [14C]acetate into cholesterol in cultured human hepatoma (HEP-G2) cells; 0.013-0.81. It counts as functional, cell-based.
Experiment [21] deals with T1, 3-hydroxy-3-methylglutaryl-coenzyme A reductase. The experiment is described as follows: Inhibitory activity against partially purified rat liver HMG-CoA reductase in vitro; 0.0015-0.0049.

In experiment [1], `O=C(O)C[C@H](O)C[C@H](O)/C=C/c1c2c(nn1-c1ccc(F)cc1)CCCCC2` gave a pIC50 of 5.44.

On to `O=C(O)C[C@H](O)C[C@H](O)/C=C/c1c2c(nn1-c1ccc(F)cc1)C(Cc1ccc3ccccc3c1)CCC2` (some centres not stated), for which the negative logarithm of the IC50 (pIC50) was 8.05 in experiment [2] and 6.48 in experiment [3].

Regarding `O=C(O)C[C@H](O)C[C@H](O)/C=C/c1c2c(nn1-c1ccc(F)cc1)C(Cc1ccc(F)cc1)CCC2` (some centres not stated), the results for the pIC50 in [4] and in experiment [5] were 6.40 and 6.70, respectively.

In experiment [6], `CC(C)n1c(/C=C/C(O)CC(O)CC(=O)O)c(-c2ccc(F)cc2)c2ccccc21` (configuration not stated) [FLUVASTATIN SODIUM] had a pIC50 of 7.10.

In the case of `COc1cccc(CC2CCCc3c2nn(-c2ccc(F)cc2)c3/C=C/[C@@H](O)C[C@@H](O)CC(=O)O)c1` (some centres not stated), the pIC50 was 5.92 in experiment [7] and 7.46 in experiment [8].

Molecule `CCC1CCCc2c1nn(-c1ccc(F)cc1)c2/C=C/[C@@H](O)C[C@@H](O)CC(=O)O` (some centres not stated) gave a pIC50 in [9] of 5.70.

`O=C(O)C[C@H](O)C[C@H](O)/C=C/c1c2c(nn1-c1ccc(F)cc1)C(C1CCCCC1)CCC2` (some centres not stated) had a pIC50 in experiment [10] of 5.07.

Turning to `O=C(O)C[C@H](O)C[C@H](O)/C=C/c1c2c(nn1-c1ccc(F)cc1)-c1ccccc1CCC2`, in [11], the pIC50 was 5.59.

The molecule `CCCC1CCCc2c1nn(-c1ccc(F)cc1)c2/C=C/[C@@H](O)C[C@@H](O)CC(=O)O` (some centres not stated) showed a negative logarithm of the IC50 (pIC50) in [12] of 5.47.

On to `O=C(O)C[C@H](O)C[C@H](O)/C=C/c1c2c(nn1-c1ccc(F)cc1)C(CCc1ccccc1)CCC2` (some centres not stated), for which the values for the pIC50 in experiment [13] and in experiment [14] were 5.77 and 6.27, respectively.

Turning to `O=C(O)C[C@H](O)C[C@H](O)/C=C/c1c2c(nn1-c1ccc(F)cc1)C(Cc1ccc(Cl)cc1)CCC2` (some centres not stated), the pIC50 is 6.85 in experiment [15] and 5.96 in experiment [16].

As to `O=C(O)C[C@H](O)C[C@H](O)/C=C/c1c2c(nn1-c1ccc(F)cc1)C(Cc1cccc3ccccc13)CCC2` (some centres not stated), the pIC50 was 7.55 in [17] and 6.34 in experiment [18].

For `O=C(O)C[C@H](O)C[C@H](O)/C=C/c1c2c(nn1-c1ccc(F)cc1)CCC2`, in [19], the pIC50 was 4.96.

On to `O=C(O)C[C@H](O)C[C@H](O)/C=C/c1c2c(nn1-c1ccc(F)cc1)C(Cc1ccc(-c3ccccc3)cc1)CCC2` (some centres not stated), for which the values for the negative-log IC50 (pIC50) in experiment [20] and in [21] were 7.00 and 8.52, respectively.

Take `CCC(C)C1CCCc2c1nn(-c1ccc(F)cc1)c2/C=C/[C@@H](O)C[C@@H](O)CC(=O)O` (some centres not stated): the pIC50 in experiment [12] is 5.49.
